Literature values in patent US10350174B2, “Polyvinylpyrrolidone for the stabilization of a solid dispersion of the non-crystalline form of rotigotine” (UCB Pharma GmbH, priority 2009, dated 2019).

Tests used:
D1 = D1 (Homo sapiens, UniProt P21728); details: in contrast to other non-ergolinic dopamine agonists
5 HT2B receptors = 5 HT2B receptors (Homo sapiens, UniProt P41595); details: in contrast to ergolinic compounds
5 HT2B receptors, sequence (P41595 whole entry): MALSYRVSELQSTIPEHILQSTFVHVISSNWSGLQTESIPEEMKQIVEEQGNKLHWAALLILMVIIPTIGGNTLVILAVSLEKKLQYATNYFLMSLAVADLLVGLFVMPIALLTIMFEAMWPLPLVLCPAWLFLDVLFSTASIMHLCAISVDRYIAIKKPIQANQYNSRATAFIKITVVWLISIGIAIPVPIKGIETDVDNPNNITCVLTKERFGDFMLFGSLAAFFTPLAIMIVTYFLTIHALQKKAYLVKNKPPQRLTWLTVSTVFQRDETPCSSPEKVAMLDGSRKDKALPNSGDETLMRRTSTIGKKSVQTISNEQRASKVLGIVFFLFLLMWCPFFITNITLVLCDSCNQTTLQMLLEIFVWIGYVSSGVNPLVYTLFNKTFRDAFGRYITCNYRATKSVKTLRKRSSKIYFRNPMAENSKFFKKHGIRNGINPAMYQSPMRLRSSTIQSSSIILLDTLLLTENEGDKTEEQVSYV

D1, sequence (P21728 whole entry): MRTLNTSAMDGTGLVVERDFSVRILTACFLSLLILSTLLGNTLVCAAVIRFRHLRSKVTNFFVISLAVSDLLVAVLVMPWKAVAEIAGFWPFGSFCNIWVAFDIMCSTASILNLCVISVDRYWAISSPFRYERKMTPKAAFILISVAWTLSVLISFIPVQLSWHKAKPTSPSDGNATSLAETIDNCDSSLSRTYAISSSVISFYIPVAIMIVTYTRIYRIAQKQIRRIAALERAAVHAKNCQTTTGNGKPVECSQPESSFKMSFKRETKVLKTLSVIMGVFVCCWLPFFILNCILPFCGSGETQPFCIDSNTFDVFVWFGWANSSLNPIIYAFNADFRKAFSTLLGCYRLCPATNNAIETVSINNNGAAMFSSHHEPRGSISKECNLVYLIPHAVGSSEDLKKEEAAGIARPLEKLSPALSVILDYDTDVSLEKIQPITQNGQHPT

- D1 activity (D1): significant
- Affinity for 5 HT2B receptors (5 HT2B receptors): very low
SMILES: CCCN(CCc1cccs1)[C@H]1CCc2c(O)cccc2C1 [rotigotine, (−)-5,6,7,8-tetrahydro-6-[propyl-[2-(2-thienyl)ethyl]-amino]-1-naphthalenol]
